Values of other authors as cited in US5045452A, “Method for evaluating nephrotoxicity” (Brigham and Women's Hospital, priority 1988, dated 1991).

System: N-acetyl-beta-D-glucosaminidase
Conditions: exposed workers

SMILES: [Pb] [lead]
- urinary acetyl glucosaminidase excretion: elevated
